Literature values, collected in patent publication US20250031692A1, “HIGH LOAD SUSPENSION CONCENTRATE COMPOSITIONS” (ADAMA AGAN LTD., priority 2021, published 2025).

Assays:
[1] = tested on: VLCFAE activity of the microsomal fraction of etiolated barnyard millet seedlings
[2] = molecular target: T1, recombinant Fatty Acid Elongation 1 (FAE1) of Arabidopsis (Arabidopsis thaliana, UniProt Q38860)
T1 sequence (Q38860 1-506): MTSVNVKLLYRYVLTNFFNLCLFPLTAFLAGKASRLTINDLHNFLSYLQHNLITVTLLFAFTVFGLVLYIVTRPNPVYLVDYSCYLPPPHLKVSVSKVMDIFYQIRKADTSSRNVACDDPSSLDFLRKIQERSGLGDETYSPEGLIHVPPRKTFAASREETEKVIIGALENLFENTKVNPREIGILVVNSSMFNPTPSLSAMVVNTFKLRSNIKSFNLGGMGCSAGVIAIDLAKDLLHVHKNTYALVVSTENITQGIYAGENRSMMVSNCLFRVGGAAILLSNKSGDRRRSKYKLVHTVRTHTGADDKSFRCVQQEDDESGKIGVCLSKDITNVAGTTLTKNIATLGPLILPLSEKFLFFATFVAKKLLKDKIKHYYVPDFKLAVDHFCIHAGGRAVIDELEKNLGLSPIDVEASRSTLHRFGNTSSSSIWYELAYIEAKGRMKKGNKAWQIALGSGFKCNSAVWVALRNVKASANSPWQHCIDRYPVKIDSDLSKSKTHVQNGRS

[3] = tested on: Echinochloa spp. and other annual weeds; conditions: 150-200 g a.i./ha; long residual activity
[4] = tested on: grass and broadleaf weeds; conditions: at lower application rates compared with other commercial herbicides

SMILES	inhibition of VLCFAE activity [1]	inhibition of VLCFAE activity [2]	herbicidal activity [3]	herbicidal activity [4]
CCOc1cc(Cl)c(CS(=O)(=O)C2=NOC(C)(C)C2)cc1Cl [Fenoxasulfone, 3-[(2,5-dichloro-4-ethoxyphenyl)methylsulfonyl]-5,5-dimethyl-4H-1,2-oxazole]	inhibited by fenoxasulfone in a time-independent manner	inhibited by fenoxasulfone in a time-dependent manner	excellent herbicidal activity	
Cn1nc(C(F)(F)F)c(CS(=O)(=O)C2=NOC(C)(C)C2)c1OC(F)F [Pyroxasulfone]				excellent herbicidal activity
